Measurements reported in publication PMC2852148 (Biochemistry, 2010).
Values joined by “and” are separate entries in the source; they are usually repeats but may differ in a detail not shown here. Equal entries are not always repeated. “Also recorded” adds a separate entry of the source.

Columns and labels:
RDL receptors [1] = target: T1, RDL receptors (Drosophila melanogaster, UniProt P25123); assay: Two-electrode voltage clamp of RDL receptors expressed in Xenopus oocytes; type: cell-based; details: for EC50: EC50, RDL receptors in Xenopus oocytes; for nH (Hill coefficient) / Imax/Imax(GABA) / pEC50: means ± SEM; for Imax/Imax(GABA): maximal current relative to maximal GABA-evoked response; for pEC50: -60 mV, N/R = no response
T1 sequence (P25123 45-606): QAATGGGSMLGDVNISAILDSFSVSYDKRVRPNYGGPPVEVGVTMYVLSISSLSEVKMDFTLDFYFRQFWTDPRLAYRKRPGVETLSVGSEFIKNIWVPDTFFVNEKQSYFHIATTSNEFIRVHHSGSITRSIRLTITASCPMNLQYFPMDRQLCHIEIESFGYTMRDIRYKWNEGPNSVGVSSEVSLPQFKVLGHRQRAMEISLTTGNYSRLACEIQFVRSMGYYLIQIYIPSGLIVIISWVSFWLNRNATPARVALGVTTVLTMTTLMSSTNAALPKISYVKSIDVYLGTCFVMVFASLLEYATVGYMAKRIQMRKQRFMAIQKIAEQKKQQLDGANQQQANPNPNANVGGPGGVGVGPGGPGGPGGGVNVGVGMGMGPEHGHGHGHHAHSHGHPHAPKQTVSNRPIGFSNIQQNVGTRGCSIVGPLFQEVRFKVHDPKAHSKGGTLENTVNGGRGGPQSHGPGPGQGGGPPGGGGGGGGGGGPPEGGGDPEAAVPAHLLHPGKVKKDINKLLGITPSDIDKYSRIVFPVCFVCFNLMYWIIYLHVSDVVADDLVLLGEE

RDL receptors [2] = target: T1, RDL receptors; details: background statement; cited from earlier work
[3] = RDL receptors in Xenopus oocytes
[4] = applied at concentrations up to 10 mM

Row | Compound | EC50 (RDL receptors [1]; Table 1) | nH (Hill coefficient) (RDL receptors [1]; [3]) | Imax/Imax(GABA) (RDL receptors [1]) | pEC50 (RDL receptors [1]; [3]) | also measured
1 | NCc1cc(=O)[nH]o1 [muscimol] | 9.04 µM | 2.2 ± 0.6 | 0.87 ± 0.03 |  | agonist type at RDL receptors (RDL receptors [1]; [3]): full agonist
2 | O=C(O)C1=CCNCC1 [isoguvacine] | 64.9 µM | 1.9 ± 0.2 | 0.97 ± 0.03 |  | 
3 | NCCc1ccc(O)cc1 [tyramine] |  |  |  | N/R | activation of RDL receptors (in words) (RDL receptors [1]; [3]): inactive; activation of RDL receptors (in words) (RDL receptors [1]; [4]): failed to activate
4 | NCCS(=O)(=O)O [taurine] | > 10000 µM |  |  |  | EC50 (RDL receptors [1]): > 10000 µM
5 | NCCC(=O)O [β-alanine] | 807 µM | 2.0 ± 0.3 | 1.0 ± 0.03 |  | EC50 (RDL receptors [1]): 800 µM and ~1000 µM
6 | NCCCP(=O)(O)O [3-APP, 3-aminopropylphosphonic acid] |  |  |  | N/R | activation of RDL receptors (in words) (RDL receptors [1]; [3]): no activating effect; also recorded: inactive
7 | NCC(=O)O [glycine] |  |  |  | N/R | activation of RDL receptors (in words) (RDL receptors [1]; [3]): inactive; activation of RDL receptors (in words) (RDL receptors [1]; [4]): failed to activate
8 | NCCCCO [4-AB, 4-amino-1-butanol] |  |  |  | N/R | activation of RDL receptors (in words) (RDL receptors [1]; [3]): inactive; activation of RDL receptors (in words) (RDL receptors [1]; [4]): failed to activate
9 | CN1CCc2cc3c(cc2[C@H]1[C@@H]1OC(=O)c2c1ccc1c2OCO1)OCO3 [bicuculline] |  |  |  |  | inhibition of homomeric RDL receptors (in words) (RDL receptors [2]): not inhibited
10 | NCC=CC(=O)O [TACA, 4-amino-2-butenoic acid] | 36.7 µM | 1.8 ± 0.2 | 1.0 ± 0.02 |  | 
11 | NCCCC(=O)O [GABA, γ-aminobutyric acid] |  | 1.8 ± 0.2 |  |  | 
12 | picrotoxin |  |  |  |  | inhibition of homomeric RDL receptors (in words) (RDL receptors [2]): inhibited
13 | Oc1noc2c1CCNC2 [THIP, 4,5,6,7-tetrahydroisoxazolo[5,4-c]pyridin-3-ol] | 226 µM | 2.4 ± 1.0 | 0.57 ± 0.06 |  | EC50 (RDL receptors [1]): 220 µM; agonist type at RDL receptors (RDL receptors [1]; [3]): partial agonist
14 | Nc1ccc(C(=O)O)cc1 [PABA, p-aminobenzoic acid] |  |  |  | N/R | activation of RDL receptors (in words) (RDL receptors [1]; [4]): failed to activate
15 | NCCCCC(=O)O [5-AV, 5-aminovaleric acid] | 1120 µM | 1.0 ± 0.3 | 0.85 ± 0.1 |  | EC50 (RDL receptors [1]): 1100 µM and ~1000 µM
